For six compounds, MIC results are on record in article PMC12203862, “BroadAMP-GPT: AI-Driven generation of broad-spectrum antimicrobial peptides for combating multidrug-resistant ESKAPE pathogens” (Gut Microbes, 2025).

≈ marks a conversion by molar mass, not a printed value. Like-named read-outs stand apart in the source and are kept apart here. Bounds are passed on as bounds.

One experiment has as its system E. faecalis ES01. Kind of experiment: microbe, parasite or virus in culture. The conditions noted are these: Enterococcus faecalis; Table 1; E. faecalis ES01; ermB, vanB; broth microdilution; read-out: MIC. In kind it is cell-based. How it is done: (§1) Bacterial strains and growth conditions: All Gram-negative and Gram-positive bacterial strains (Supplementary Table S8) were cultured in Luria-Bertani (LB) or trypticase soy broth (TSB) agar plates, respectively, and incubated overnight at 37 °C unless specifically indicated. A single colony of the tested bacterial strains was inoculated into medium broth with shaking at 220 rpm for further experiments.
(§2) Minimal inhibitory concentrations: Antimicrobial susceptibility testing was performed by broth microdilution method for AMPs against Gram-positive and Gram-negative pathogens above mentioned, following the methods of document CLSI M100-ED34.[43] The MICs were defined as the lowest concentrations that inhibit visible growth of the tested bacteria. E. coli ATCC 25,922 and S. aureus ATCC 29,213 were served as quality controls.
For orientation: Broth dilution looks for growth in wells or tubes with falling amounts of substance.

The test system of another experiment is E. faecalis J2. Kind of experiment: microbe, parasite or virus in culture. The experiment is classed as cell-based. The conditions noted are these: Enterococcus faecalis; Table 1; E. faecalis J2; ermB, optrA; broth microdilution; read-out: MIC. How it is done: as §1, §2
The subject of the next experiment is E. faecalis JH2-2. The experiment is described as follows: microbe, parasite or virus in culture. In kind it is cell-based. The settings on record: Enterococcus faecalis, JH22; Table 1; E. faecalis JH2-2; broth microdilution; read-out: MIC. How it is done:
as §1, §2

In another experiment the test system is E. faecalis SF23-1. Kind of experiment: microbe, parasite or virus in culture. In kind it is cell-based. The settings on record: Enterococcus faecalis, SF231; Table 1; E. faecalis SF23-1; ermB, tetL, cfr; broth microdilution; read-out: MIC. The protocol:
as §1, §2

The next experiment deals with E. faecium HFY01. The experiment is described as follows: microbe, parasite or virus in culture. In kind it is cell-based. The conditions noted are these: Enterococcus faecium; Table 1; E. faecium HFY01; broth microdilution; read-out: MIC. How it is done:
as §1, §2

Another experiment relates to E. faecium MC38. The experiment is described as follows: microbe, parasite or virus in culture. In kind it is cell-based. The conditions noted are these: Enterococcus faecium; Table 1; E. faecium MC38; ermB, optrA; broth microdilution; read-out: MIC. How it is done: as §1, §2
The test system of another experiment is E. faecium QF31. Kind of experiment: microbe, parasite or virus in culture. In kind it is cell-based. The settings on record: Enterococcus faecium; Table 1; E. faecium QF31; ermB, cfr; broth microdilution; read-out: MIC. How it is done:
as §1, §2

The subject of the next experiment is S. agalactiae DL03. The experiment is described as follows: microbe, parasite or virus in culture. The experiment is classed as cell-based. The conditions noted are these: Streptococcus agalactiae; Table 1; S. agalactiae DL03; ermB; broth microdilution; read-out: MIC. The protocol: as §1, §2
The next experiment has as its system S. aureus M147-2. Kind of experiment: microbe, parasite or virus in culture. In kind it is cell-based. The settings on record: Staphylococcus aureus, M1472; Table 1; S. aureus M147-2; ermB, tetL, cfr; broth microdilution; read-out: MIC. How it is done: as §1, §2
The test system of a further experiment is S. aureus M92-1. The experiment is described as follows: microbe, parasite or virus in culture. In kind it is cell-based. The conditions noted are these: Staphylococcus aureus, M921; Table 1; S. aureus M92-1; ermB, tetL, optrA; broth microdilution; read-out: MIC. The protocol:
as §1, §2

Another experiment relates to S. aureus YZSA-15. The experiment is described as follows: microbe, parasite or virus in culture. The experiment is classed as cell-based. The settings on record: Staphylococcus aureus, YZSA15; Table 1; S. aureus YZSA-15; ermC, vanB; broth microdilution; read-out: MIC. The protocol: as §1, §2
For a further experiment, the system named is S. aureus YZSA-21. The experiment is described as follows: microbe, parasite or virus in culture. In kind it is cell-based. The settings on record: Staphylococcus aureus, YZSA21; Table 1; S. aureus YZSA-21; ermC; broth microdilution; read-out: MIC. How it is done: as §1, §2
A further experiment relates to S. aureus YZSA-24. Kind of experiment: microbe, parasite or virus in culture. The experiment is classed as cell-based. The settings on record: Staphylococcus aureus, YZSA24; Table 1; S. aureus YZSA-24; ermC, mecA; broth microdilution; read-out: MIC. The protocol:
as §1, §2

The subject of another experiment is S. pyogenes DL02. Kind of experiment: microbe, parasite or virus in culture. The experiment is classed as cell-based. The settings on record: Streptococcus pyogenes; Table 1; S. pyogenes DL02; ermB; broth microdilution; read-out: MIC. How it is done: as §1, §2
A further experiment concerns S. suis SH0918. The experiment is described as follows: microbe, parasite or virus in culture. In kind it is cell-based. The conditions noted are these: Streptococcus suis; Table 1; S. suis SH0918; ermB, tetO, optrA; broth microdilution; read-out: MIC. The protocol: as §1, §2
In a further experiment the test system is A. baumannii 7979. Kind of experiment: microbe, parasite or virus in culture. The conditions noted are these: Table 1, A. baumannii 7979, broth microdilution. In kind it is cell-based. How it is done:
as §1, §2

Another experiment deals with A. baumannii AB11. The experiment is described as follows: microbe, parasite or virus in culture. The experiment is classed as cell-based. The protocol: as §1, §2
A further experiment deals with E. coli ATCC 25922. Kind of experiment: microbe, parasite or virus in culture. The experiment is classed as cell-based. The protocol:
as §1, §2

Another experiment deals with K. pneumoniae 9-1. The experiment is described as follows: microbe, parasite or virus in culture. The experiment is classed as cell-based. The conditions noted are these: Table 1, K. pneumoniae 9-1, broth microdilution. How it is done:
as §1, §2

Another experiment relates to P. aeruginosa PA14. Kind of experiment: microbe, parasite or virus in culture. The experiment is classed as cell-based. The protocol:
as §1, §2

Another experiment concerns P. aeruginosa PAO1. Kind of experiment: microbe, parasite or virus in culture. The experiment is classed as cell-based. The conditions noted are these: Table 1, P. aeruginosa PAO1, broth microdilution. The protocol: as §1, §2
The next experiment concerns S. enteritis S1. Kind of experiment: organism not typed. In kind it is cell-based. The conditions noted are these: Table 1, S. enteritis S1, broth microdilution. How it is done: as §1, §2
A further experiment deals with S. aureus ATCC 29213. The experiment is described as follows: microbe, parasite or virus in culture. In kind it is cell-based. The conditions noted are these: Staphylococcus aureus, ATCC29213; Table 1; S. aureus ATCC 29213; broth microdilution, CLSI M100-ED34; read-out: MIC.
In the next experiment the test system is S. suis P1/7. Kind of experiment: microbe, parasite or virus in culture. The conditions noted are these: Streptococcus suis, P1/7. How it is done:
as §1
Minimal inhibitory concentrations: Antimicrobial susceptibility testing was performed by broth microdilution method for AMPs against Gram-positive and Gram-negative pathogens above mentioned, following the methods of document CLSI M100-ED34.[43] The MICs were defined as the lowest concentrations that inhibit visible growth of the tested bacteria.

Where [1] appears, read: Acinetobacter baumannii, read-out: MIC.
Where [2] appears, read: Klebsiella pneumoniae, 91, read-out: MIC.
The mark [3] stands for this setting: Pseudomonas aeruginosa, read-out: MIC.
Setting [4] is: Acinetobacter baumannii, Table 1, A. baumannii AB11, broth microdilution, read-out: MIC.
[5] abbreviates: Escherichia coli, ATCC25922, Table 1, E. coli ATCC 25922, broth microdilution, read-out: MIC.
Where [6] appears, read: Pseudomonas aeruginosa, Table 1, P. aeruginosa PA14, broth microdilution, read-out: MIC.

Consider `O=C(O)c1cn(C2CC2)c2cc(N3CCNCC3)c(F)cc2c1=O` [CIP, ciprofloxacin], for which the MIC with E. faecalis ES01 amounted to 2 µg/mL (≈ 6.04 µM); in the experiment with E. faecalis J2 it was 8 µg/mL (≈ 24.1 µM); in the experiment with E. faecalis JH2-2, 0.5 µg/mL (≈ 1.51 µM); with E. faecalis SF23-1, 16 µg/mL (≈ 48.3 µM); in the experiment with E. faecium HFY01, 1 µg/mL (≈ 3.02 µM); in the experiment on E. faecium MC38, 8 µg/mL (≈ 24.1 µM). Further, the MIC in the experiment on E. faecium QF31 came out at 2 µg/mL (≈ 6.04 µM); in the experiment with S. agalactiae DL03, 16 µg/mL (≈ 48.3 µM); in the experiment with S. aureus M147-2 it was 32 µg/mL (≈ 96.6 µM); with S. aureus M92-1 it was 16 µg/mL (≈ 48.3 µM); in the experiment on S. aureus YZSA-15 it was 0.25 µg/mL (≈ 0.754 µM); with S. aureus YZSA-21 it was 0.5 µg/mL (≈ 1.51 µM). Also, the MIC in the experiment on S. aureus YZSA-24 was 4 µg/mL (≈ 12.1 µM); in the experiment with S. pyogenes DL02, 1 µg/mL (≈ 3.02 µM); in the experiment with S. suis SH0918 it was 16 µg/mL (≈ 48.3 µM).

`C[C@H]1COc2c(N3CCN(C)CC3)c(F)cc3c(=O)c(C(=O)O)cn1c23` [LVX, Levofloxacin]: the MIC with A. baumannii 7979 (setting [1]) is over 64 µg/mL; in the experiment with A. baumannii AB11 (Acinetobacter baumannii, AB11), 0.125 µg/mL (≈ 0.346 µM); with E. coli ATCC 25922 (Escherichia coli, ATCC25922), 0.125 µg/mL (≈ 0.346 µM); with K. pneumoniae 9-1 (setting [2]), over 64 µg/mL; against P. aeruginosa PA14 (Pseudomonas aeruginosa, PA14), 0.125 µg/mL (≈ 0.346 µM); in the experiment on P. aeruginosa PAO1 (setting [3]), 0.5 µg/mL (≈ 1.38 µM). The MIC in the experiment on S. enteritis S1 (read-out: MIC) is 0.5 µg/mL (≈ 1.38 µM).

For the compound colistin [CST], the MIC is under 0.06 µg/mL in the experiment on A. baumannii 7979; 8 µg/mL against A. baumannii AB11 (Table 1, A. baumannii AB11, broth microdilution); 1 µg/mL in the experiment with E. coli ATCC 25922 (Table 1, E. coli ATCC 25922, broth microdilution); 1 µg/mL in the experiment on K. pneumoniae 9-1; under 0.06 µg/mL with P. aeruginosa PA14 (Table 1, P. aeruginosa PA14, broth microdilution); 0.125 µg/mL against P. aeruginosa PAO1. In addition, the MIC against S. enteritis S1 came to 0.5 µg/mL.

On to `CC[C@H]1OC(=O)[C@H](C)[C@@H](O[C@H]2C[C@@](C)(OC)[C@@H](O)[C@H](C)O2)[C@H](C)[C@@H](O[C@@H]2O[C@H](C)C[C@H](N(C)C)[C@H]2O)[C@](C)(O)C[C@@H](C)C(=O)[C@H](C)[C@@H](O)[C@]1(C)O` [ERY, Erythromycin], for which the MIC in the experiment on S. aureus ATCC 29213 is 1 µg/mL (≈ 1.36 µM); in the experiment on E. faecalis ES01, over 64 µg/mL; with E. faecalis J2, over 64 µg/mL; with E. faecalis JH2-2 it was 0.25 µg/mL (≈ 0.341 µM); in the experiment with E. faecalis SF23-1, over 64 µg/mL; in the experiment with E. faecium HFY01, 2 µg/mL (≈ 2.73 µM). The MIC with E. faecium MC38, in the experiment on E. faecium QF31, in the experiment with S. agalactiae DL03, in the experiment with S. aureus M147-2, in the experiment with S. aureus M92-1 and in the experiment with S. aureus YZSA-15 was over 64 µg/mL each time. The MIC with S. aureus YZSA-21 was over 64 µg/mL; with S. aureus YZSA-24 it was over 63 µg/mL; with S. pyogenes DL02, over 64 µg/mL; in the experiment on S. suis SH0918, over 64 µg/mL; against S. suis P1/7 it was 0.125 µg/mL (≈ 0.17 µM).

On to `C[C@@H](O)[C@H]1C(=O)N2C(C(=O)O)=C(S[C@@H]3CN[C@H](C(=O)N(C)C)C3)[C@H](C)[C@H]12` [MEM, Meropenem], for which the MIC in the experiment on A. baumannii 7979 (setting [1]) is over 64 µg/mL; in the experiment with A. baumannii AB11 (setting [4]), under 0.06 µg/mL; in the experiment on E. coli ATCC 25922 (setting [5]), 0.25 µg/mL (≈ 0.652 µM); with K. pneumoniae 9-1 (setting [2]), 4 µg/mL (≈ 10.4 µM); in the experiment on P. aeruginosa PA14 (setting [6]), 0.5 µg/mL (≈ 1.3 µM); in the experiment on P. aeruginosa PAO1 (setting [3]) it was 0.5 µg/mL (≈ 1.3 µM). The MIC in the experiment with S. enteritis S1 (read-out: MIC) was found to be 0.25 µg/mL (≈ 0.652 µM).

As for `C[C@H]1[C@H](NC(=O)/C(=N\OC(C)(C)C(=O)O)c2csc(N)n2)C(=O)N1S(=O)(=O)O` [ATM, Aztreonam], the MIC was over 64 µg/mL with A. baumannii 7979 (setting [1]); over 64 µg/mL with A. baumannii AB11 (setting [4]); 0.25 µg/mL (≈ 0.574 µM) with E. coli ATCC 25922 (setting [5]); over 64 µg/mL with K. pneumoniae 9-1 (setting [2]); 4 µg/mL (≈ 9.19 µM) with P. aeruginosa PA14 (setting [6]); 2 µg/mL (≈ 4.59 µM) in the experiment with P. aeruginosa PAO1 (setting [3]). The MIC in the experiment on S. enteritis S1 (read-out: MIC) came to 2 µg/mL (≈ 4.59 µM).
